Measured values as given in article PMC13193874, “Targeting PIP5K ameliorates hepatic cancer by inhibiting PI3K/AKT and the autophagy mechanism and enhancing ROS-mediated apoptosis” (Frontiers in Pharmacology, 2026).

Target: PIP5K1B (Homo sapiens, UniProt O14986)
Experiment: cell-free kinase assay (Thermo Fisher SelectScreen, ADP detection), 10-point dose response; […] inhibition at […]
Assay type: biochemical

Chain of PIP5K1B (O14986 whole entry): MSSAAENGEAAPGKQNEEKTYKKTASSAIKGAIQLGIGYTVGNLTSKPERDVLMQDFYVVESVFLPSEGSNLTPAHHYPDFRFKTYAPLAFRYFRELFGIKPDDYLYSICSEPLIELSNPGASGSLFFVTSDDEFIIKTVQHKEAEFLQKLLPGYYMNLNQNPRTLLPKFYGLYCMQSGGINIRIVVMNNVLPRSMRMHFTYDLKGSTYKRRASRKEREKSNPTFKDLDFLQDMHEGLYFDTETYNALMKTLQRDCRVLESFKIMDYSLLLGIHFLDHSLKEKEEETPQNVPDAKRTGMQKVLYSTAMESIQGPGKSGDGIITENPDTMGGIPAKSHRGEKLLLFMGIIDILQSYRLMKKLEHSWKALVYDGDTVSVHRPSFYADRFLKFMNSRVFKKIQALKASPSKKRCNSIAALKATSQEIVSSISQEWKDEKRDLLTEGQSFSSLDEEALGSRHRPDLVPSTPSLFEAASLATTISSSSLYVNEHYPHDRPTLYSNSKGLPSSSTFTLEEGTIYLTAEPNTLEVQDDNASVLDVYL

IC50: 281 nM
SMILES: Fc1ccc(Nc2nc(Nc3ccc(-c4nc5ccccc5[nH]4)cc3)nc(N3CCOCC3)n2)cc1 [15g, N2-[4-(1H-benzimidazol-2-yl)phenyl]-N4-(4-fluorophenyl)-6-(4-morpholinyl)-1,3,5-triazine-2,4-diamine]
